Values joined by “and” are separate entries in the source; they are usually repeats but may differ in a detail not shown here. Identical values can stand only once.
Assays:
[1] = tested on: sRANKL induced osteoclast differentiation; assay: In vitro anti-osteoclastogenesis activity determination (TRAP staining); assay type: cell-based, mouse; parameters: key to inhibition of osteoclastogenesis, dose-response (fig. S2a): % inhibition = 100 − (treated−unstimulated)/(untreated−unstimulated)×100; conditions: for OC inhibitory ratio, sRANKL induced (fig. 3c IC50 curve data): replicates
In short: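 Mouse bone-marrow macrophages in 10 ng/mL M-CSF were stimulated with 100 ng/mL sRANKL plus compound at 9 concentrations, refreshed every 2 days, triplicate wells. After 5 days TRAP-stained osteoclasts were counted; inhibition normalised to untreated and unstimulated controls, IC50 by nonlinear regression.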

[2] = tested on: RANKL-induced resorption pits; assay: Hydroxyapatite resorption assay; assay type: cell-based, mouse; conditions: for bone resorption / RANKL-induced resorption pits: in words
Method: BMMs (1 × 10^5 cells/well) were cultured onto 6-well collagen-coated plates and stimulated with 100 ng/mL sRANKL and 10 ng/mL M-CSF for 3 days to generate early stage of osteoclasts began differentiation. Then early-stage osteoclasts were gently harvested using cell dissociation solution, and seeded into OsteoAssay Surface (hydroxyapatite-coated) 24-well plates. Early-stage osteoclasts were continue incubated in a medium containing sRANKL and M-CSF with or without treatment. After 48 h, wells were bleached to remove cells, followed by image acquisition for the measurement of resorbed areas using a Leica microscope. The percentage of surface resorbed was analyzed using ImageJ software.

OVX rats = assay: Osteoporosis therapeutic study in OVX rats (micro-CT); assay type: in vivo, rat; parameters: Tb.N: unit not given beside the values; conditions: for BV/TV / Tb.N / Tb.Sp / Tb.Th: individual animals; for BV/TV of OVX rats: oral 10 mg/kg/day, 12 weeks, in words
Method: Female SD rats or C57BL/6 mice were cared until they grown up to 6 months old or 10 weeks old, respectively. Then we subjected them to either bilateral ovariectomy or sham operation after anesthesia with 10% chloral hydrate (0.3 mL/100 g). Then all the rats or mice were intramuscular injected of penicillin to prevent infection in the first week of surgery. For rat experiments, after 12 weeks of operation, 3 rats from sham-operated or ovariectomized groups were random selected to determine bone mass by micro-CT imaging biopsy to verify successful produced bone loss(data unshown). Then the OVX rats were individually administrated with S3-15, S3, and S3-05 orally with (10 mg/kg/day) for another 12 weeks. For mouse experiments, after 4 weeks of surgery, the OVX mice were treated with 10 mg/kg/day S3-15 for another 4 weeks.
The weight of rats or mice were recorded every week in the treatment period. After treatment, the rats were harvested, the serum, heart, liver, spleen, lung, kidney, thymus, and femurs were all collected and subjected to subsequent analysis. The right femurs of rats or mice were cleaned excess soft tissue, fixed in 10% formalin, and processed them for microcomputed tomography (micro-CT) analysis. Left mice femurs were collected and excarnate for biomechanical strength testing. Mice peripheral blood were as well as collected for flow cytometry analyzing.
The right femurs of rats or mice were further analyzed with micro-CT on Inveon PET/CT (Siemens, Germany). We used micro-CT to scan the femur from the femoral head to the femoral condyle, using 19 μm resolution, 80 kV 500uA, 360 projection, 3000-6000 image threshold, full rotation cone beam. Three-dimensional reconstruction and histomorphometric analyses of trabecular bone were conducted with the IAW (Inveon analysis workstation) analysis software. The trabecular extended 1 mm (rat) or 0.5 mm (mice) proximally to the end of the distal growth plate over 2 mm (rats) or 1 mm (mice) toward the diaphysis was selected as the region of interest (ROI) for the analysis. The resulting two-dimensional images of trabecular bone in relative cross sections were shown in grayscale. Trabecular bone parameters were measured including bone volume/tissue volume (BV/TV), bone surface area/bone volume (BS/BV), trabecular number (Tb.N), trabecular thickness (Tb.Th), trabecular separation(Tb.Sp) and trabecular pattern factor(Tb.P.F).

RAW264.7 cells = assay: In vitro cytotoxicity assay (MTT); assay type: cell-based, mouse
In short: (§1)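 Log-phase cells were seeded at 6 × 10^3 per well and incubated 24 h, with viability read by MTT. Growth inhibition (%) was calculated from OD relative to vehicle wells. CC50 came from nonlinear regression curve fitting.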

[3] = In vitro cytotoxicity assay (MTT); assay type: cell-based, mouse; conditions: mouse, RAW264.7 cells; for viability at 24 h, 0.08 μM: conc. 0.08 μM; for viability at 24 h, 10 μM: conc. 10 μM; for CC50 at 24 h: RAW264.7, MTT
In short: as §1

[4] = read-out: cell viability relative to 0 μM (fig. S5e)
[5] = OVX rats, S3-15 oral 10 mg/kg/day 12 weeks, 10 mg/kg/day

In the case of `CCOC(=O)c1sc(NC(=O)/C(=N/Nc2ccc(O)cc2C(=O)O)C(C)=O)nc1C` [S3-05], the IC50 ([1]; Mus musculus, Osteoclast, 120 h, BMMs, M-CSF + 100 ng/mL sRANKL, 5 days, TRAP staining, read-out: OC IC50 (anti-osteoclastogenesis activity)) is reported as 0.41 µM, the inhibition at 0.00774313 µM ([1]; Mus musculus, Osteoclast, conc. 0.00774313 μM, three replicate columns, read-out: inhibition of osteoclastogenesis, dose-response (fig. S2a)) is reported as 10.9% and the inhibition at 0.0255523 µM ([1]; Mus musculus, Osteoclast, conc. 0.0255523 μM, three replicate columns, read-out: inhibition of osteoclastogenesis, dose-response (fig. S2a)) is reported as 21.5%. For the same compound, the inhibition at 0.0843226 µM ([1]; Mus musculus, Osteoclast, conc. 0.0843226 μM, three replicate columns, read-out: inhibition of osteoclastogenesis, dose-response (fig. S2a)) was 24.5%, the inhibition at 0.278265 µM ([1]; Mus musculus, Osteoclast, conc. 0.278265 μM, three replicate columns, read-out: inhibition of osteoclastogenesis, dose-response (fig. S2a)) was 45.8% and the inhibition at 0.918274 µM ([1]; Mus musculus, Osteoclast, conc. 0.918274 μM, three replicate columns, read-out: inhibition of osteoclastogenesis, dose-response (fig. S2a)) was 58.5%. The inhibition at 3.0303 µM ([1]; Mus musculus, Osteoclast, conc. 3.0303 μM, three replicate columns, read-out: inhibition of osteoclastogenesis, dose-response (fig. S2a)) was 78.9%, the inhibition at 10 µM ([1]; Mus musculus, Osteoclast, conc. 10 μM, three replicate columns, read-out: inhibition of osteoclastogenesis, dose-response (fig. S2a)) was 86.2% and the inhibition at 33 µM ([1]; Mus musculus, Osteoclast, conc. 33 μM, three replicate columns, read-out: inhibition of osteoclastogenesis, dose-response (fig. S2a)) was 98.5%. The “inhibition of osteoclastogenesis, dose-response (fig. S2a)” value (“inhibition of osteoclastogenesis” for short) ([1]; conc. 0.0023464 μM, three replicate columns) was 5.216 and -0.5015 and 0.1003, the “inhibition of osteoclastogenesis” value ([1]; conc. 0.00774313 μM, three replicate columns) was 7.021 and 8.826 and the “inhibition of osteoclastogenesis” value ([1]; conc. 0.0255523 μM, three replicate columns) was 18.7563 and 13.6409. For the same compound, the “inhibition of osteoclastogenesis” value ([1]; conc. 0.0843226 μM, three replicate columns) was 23.8716, the “inhibition of osteoclastogenesis” value ([1]; conc. 0.278265 μM, three replicate columns) was 51.2538 and 38.6159 and the “inhibition of osteoclastogenesis” value ([1]; conc. 0.918274 μM, three replicate columns) was 65.3962 and 65.0953. The “inhibition of osteoclastogenesis” value ([1]; conc. 3.0303 μM, three replicate columns) was 74.4233 and 77.4323, the “inhibition of osteoclastogenesis” value ([1]; conc. 10 μM, three replicate columns) was 87.0612 and 88.2648 and the “inhibition of osteoclastogenesis” value ([1]; conc. 33 μM, three replicate columns) was 99.3982 and 99.6991. The “bone resorption / RANKL-induced resorption pits” value [2] was “suppresses RANKL-induced resorption”, the BV/TV (OVX rats; OVX + compound) was 0.3016 and 0.3941 and 0.3094 and 0.3401 and 0.3769 and 0.3486 and 0.3669 and 0.2495 and the Tb.N (OVX rats; OVX + compound) was 0.07827 and 0.1011 and 0.07596 and 0.08201 and 0.08333 and 0.08879 and 0.08221 and 0.07582. For the same compound, the Tb.Sp (OVX rats; OVX + compound) was 0.1812 and 0.1554 and 0.1695 and 0.1592 and 0.1377 and 0.1659 and 0.1419 and 0.2281, the Tb.Th (OVX rats; OVX + compound) was 3.854 and 3.899 and 4.073 and 4.146 and 4.523 and 3.9259 and 4.463 and 3.291 and the “BV/TV of OVX rats” value (OVX rats) was “increased”. The “cell viability relative to 0 μM (fig. S5e)” value (RAW264.7 cells; conc. 0.08 μM) was 112.115 and 113.045, the “cell viability relative to 0 μM (fig. S5e)” value (RAW264.7 cells; conc. 0.28 μM) was 104.323 and 119.674 and the “cell viability relative to 0 μM (fig. S5e)” value (RAW264.7 cells; conc. 0.92 μM) was 131.188 and 122. For the same compound, the “cell viability relative to 0 μM (fig. S5e)” value (RAW264.7 cells; conc. 3.03 μM) was 125.024 and 127.118, the “cell viability relative to 0 μM (fig. S5e)” value (RAW264.7 cells; conc. 10 μM) was 125.722 and 115.72 and the viability at 24 h, 0.08 μM [3, 4] was 98.4%. For the same compound, the viability at 24 h, 0.28 μM ([3]; conc. 0.28 μM, read-out: cell viability relative to 0 μM (fig. S5e)) was 118%, the viability at 24 h, 0.92 μM ([3]; conc. 0.92 μM, read-out: cell viability relative to 0 μM (fig. S5e)) was 132% and the viability at 24 h, 3.03 μM ([3]; conc. 3.03 μM, read-out: cell viability relative to 0 μM (fig. S5e)) was 127%. The viability at 24 h, 10 μM [3, 4] was 113% and the CC50 at 24 h [3] was 93.9 µM.
With `CC(=O)/C(=N\Nc1ccccc1C(=O)O)C(=O)Nc1ccccn1` [S3-15] the “OC inhibitory ratio, sRANKL induced (fig. 3c IC50 curve data)” value (shortened to “OC inhibitory ratio, sRANKL induced”) ([1]; 0.003 μM) was 7.9602 and 6.219 and 4.726, the “OC inhibitory ratio, sRANKL induced” value ([1]; 0.01 μM) was -4.229 and 6.965 and 4.975 and the “OC inhibitory ratio, sRANKL induced” value ([1]; 0.03 μM) was 19.1542 and 29.1045 and 33.5821. For the same compound, the “OC inhibitory ratio, sRANKL induced” value ([1]; 0.1 μM) was 31.8408 and 36.5672 and 39.0547, the “OC inhibitory ratio, sRANKL induced” value ([1]; 0.3 μM) was 40.2985 and 51.7413 and 33.8308 and the “OC inhibitory ratio, sRANKL induced” value ([1]; 1 μM) was 50.7463 and 58.209 and 52.4876. The “OC inhibitory ratio, sRANKL induced” value ([1]; 3.3 μM) was 76.6169 and 75.8706 and 78.607, the “OC inhibitory ratio, sRANKL induced” value ([1]; 10 μM) was 91.791 and 91.0448 and 90.2985 and the “OC inhibitory ratio, sRANKL induced” value ([1]; 33 μM) was 99.005 (2×) and 98.5075. For the same compound, the “resorption pits area quantification (fig. 6g)” value ([2]; S3-15 0.1 μM, vehicle 95, 90, 94) was 80 and 85 and 76, the “resorption pits area quantification (fig. 6g)” value ([2]; S3-15 1 μM) was 57 and 64 and 65 and the “resorption pits area quantification (fig. 6g)” value ([2]; S3-15 10 μM) was 34 and 29 and 27. The “bone resorption / RANKL-induced resorption pits” value [2] was “attenuated bone resorption in a dose-dependent manner”, the BV/TV (OVX rats; OVX rats, S3-15 oral 10 mg/kg/day 12 weeks, distal femur, 10 mg/kg/day) was 0.6788 and 0.422 and 0.4058 and 0.5401 and 0.3909 and 0.3235 and 0.4349 and 0.3705 and 0.4806 and the Tb.N (OVX rats; [5]) was 6.402 1/mm and 4.855 1/mm and 5.594 1/mm and 4.923 1/mm and 3.924 1/mm and 4.525 1/mm and 4.231 1/mm and 4.365 1/mm and 4.683 1/mm. For the same compound, the Tb.Sp (OVX rats; [5]) was 0.05016 mm and 0.1191 mm and 0.1062 mm and 0.09343 mm and 0.1553 mm and 0.1495 mm and 0.1335 mm and 0.1442 mm and 0.1109 mm, the Tb.Th (OVX rats; [5]) was 0.05016 mm and 0.1191 mm and 0.1062 mm and 0.09343 mm and 0.1553 mm and 0.1495 mm and 0.1335 mm and 0.1442 mm and 0.1109 mm and the “BV/TV of OVX rats” value (OVX rats) was “increased”. The “cell viability relative to 0 μM (fig. S5e)” value (RAW264.7 cells; conc. 0.08 μM) was 111.614 and 102.001, the “cell viability relative to 0 μM (fig. S5e)” value (RAW264.7 cells; conc. 0.28 μM) was 101.596 and 120.838 and 143.415 and the “cell viability relative to 0 μM (fig. S5e)” value (RAW264.7 cells; conc. 0.92 μM) was 144.954 and 160.091 and 138.541. For the same compound, the “cell viability relative to 0 μM (fig. S5e)” value (RAW264.7 cells; conc. 3.03 μM) was 169.327 and 148.033 and 125.969, the “cell viability relative to 0 μM (fig. S5e)” value (RAW264.7 cells; conc. 10 μM) was 154.703 and 140.336 and the viability at 24 h, 0.08 μM [3, 4] was 107%. For the same compound, the viability at 24 h, 10 μM [3, 4] was 137% and the CC50 at 24 h [3] was 62.5 µM.
